Results: PubChem BioAssay AID330 (DTP/NCI, 2004)
Where “and” joins values, the source holds several entries; their conditions need not be identical. Identical values can stand only once. Toxic doses and inconclusive results are not listed. The calls were made as follows: active = survival T/C of 150% or more; inactive = T/C below 125% in these data.

System: P388 leukemia ip, CD2F1 mice, survival T/C
Experiment: NCI In Vivo Anticancer Drug Screen. Data for tumor model P388 Leukemia (intraperitoneal) in CD2F1 (CDF1) mice
Settings: endpoint: median survival time, higher = longer survival
How it was run: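 Mice carrying the transplanted tumor received test compound or vehicle. Survival was recorded in each group, and the value is the treated-group measurement divided by that of the vehicle-treated control group.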

[1] = dose: 50.0 mg/kg/injection, schedule: Q01DX005 (ip), vehicle: saline with Tween-80
[2] = dose: 100.0 mg/kg/injection, schedule: Q01DX005 (ip), vehicle: saline with Tween-80
[3] = dose: 200.0 mg/kg/injection, schedule: Q01DX005 (ip), vehicle: saline with Tween-80
[4] = dose: 50.0 mg/kg/injection, schedule: Q01DX009 (ip), vehicle: saline
[5] = dose: 100.0 mg/kg/injection, schedule: Q01DX009 (ip), vehicle: saline
[6] = dose: 100.0 mg/kg/injection, schedule: Q04DX003 (ip), vehicle: saline
[7] = dose: 200.0 mg/kg/injection, schedule: Q04DX003 (ip), vehicle: saline
[8] = dose: 400.0 mg/kg/injection, schedule: Q04DX003 (ip), vehicle: saline
[9] = dose: 50.0 mg/kg/injection, schedule: Q01DX005 (ip), vehicle: Klucel (hydroxypropylcellulose) (HPC)
[10] = dose: 100.0 mg/kg/injection, schedule: Q01DX005 (ip), vehicle: Klucel (hydroxypropylcellulose) (HPC)
[11] = dose: 200.0 mg/kg/injection, schedule: Q01DX005 (ip), vehicle: Klucel (hydroxypropylcellulose) (HPC)
[12] = dose: 200.0 mg/kg/injection, schedule: Q01DX009 (ip), vehicle: saline

Measured: T/C

C[C@H]1C(=O)CCC2[C@]3(C)CC4OC(=O)C5(CC[C@@]6(C)CCC(C)(C)CC6C45C)C3CC[C@@]21C (stereo not given in full)
inactive: dose: 8.25 mg/kg/injection, schedule: Q01DX005 (ip), vehicle: Klucel (hydroxypropylcellulose) (HPC) 93 % of control

O=C(NC(=O)C(F)(F)C(F)(F)F)Nc1ccc(Cl)cc1
inactive: dose: 50.0 mg/kg/injection, schedule: Q01DX009 (ip), vehicle: Klucel (hydroxypropylcellulose) (HPC) 115 % of control | dose: 100.0 mg/kg/injection, schedule: Q01DX009 (ip), vehicle: Klucel (hydroxypropylcellulose) (HPC) 98 % of control | dose: 200.0 mg/kg/injection, schedule: Q01DX009 (ip), vehicle: Klucel (hydroxypropylcellulose) (HPC) 101 % of control

BrCC[Se](Br)(Br)c1ccccc1
inactive: dose: 1.56 mg/kg/injection, schedule: Q01DX009 (ip), vehicle: Klucel (hydroxypropylcellulose) (HPC) 101 % of control | dose: 3.12 mg/kg/injection, schedule: Q01DX009 (ip), vehicle: Klucel (hydroxypropylcellulose) (HPC) 101 % of control | dose: 6.25 mg/kg/injection, schedule: Q01DX009 (ip), vehicle: Klucel (hydroxypropylcellulose) (HPC) 99 % of control and 93 % of control

CN(C)CCCCNc1c2c(nc3c(Cl)cccc13)CCC2
inactive: [1] 99 % of control | [2] 105 % of control | [3] 99 % of control

COCCC(=NC(C)(C)C)Nc1c(Cl)cccc1Cl
inactive: [4] 110 % of control | [5] 108 % of control

c1csc(C2=NCCC2)c1
inactive: [1] 100 % of control | [2] 102 % of control | [3] 102 % of control

Cc1ccccc1Nc1nc(-c2ccccc2)nc(N)c1N=O
inactive: [6] 100 % of control | [7] 98 % of control | [8] 98 % of control

CC(N)(CO)C(=O)O (stereo not given)
inactive: [6] 104 % of control | [7] 90 % of control | [8] 100 % of control

CCN(CC)CCCCCCNc1cc(OC)cc2cccnc12
inactive: dose: 12.5 mg/kg/injection, schedule: Q01DX009 (ip), vehicle: saline 86 % of control | dose: 25.0 mg/kg/injection, schedule: Q01DX009 (ip), vehicle: saline 96 % of control | [4] 90 % of control

Cc1ccc(S(=O)(=O)NCCCCCCNS(=O)(=O)c2ccc(C)cc2)cc1
inactive: [9] 86 % of control and 90 % of control | [10] 89 % of control | [11] 86 % of control and 91 % of control

CCCNc1nc(C)nc2[nH]c(Cc3ccccc3)c(C)c12
inactive: [9] 97 % of control | [10] 100 % of control | [11] 100 % of control

CN=C(NCCCOC)c1ccc(NC(=O)c2ccc(C(=O)Nc3ccc(C(=NC)NCCCOC)cc3)cc2)cc1
inactive: dose: 5.0 mg/kg/injection, schedule: Q01DX009 (ip), vehicle: saline 118 % of control | dose: 5.0 mg/kg/injection, schedule: Q04DX003 (ip), vehicle: saline 100 % of control | dose: 10.0 mg/kg/injection, schedule: Q01DX009 (ip), vehicle: saline 122 % of control | dose: 10.0 mg/kg/injection, schedule: Q04DX003 (ip), vehicle: saline 100 % of control | dose: 20.0 mg/kg/injection, schedule: Q01DX009 (ip), vehicle: saline 90 % of control | dose: 20.0 mg/kg/injection, schedule: Q04DX003 (ip), vehicle: saline 95 % of control

CCOC(=O)CC1(O)CCC2C3CC=C4CC(OC5CCCCO5)CCC4(C)C3CCC21C (stereo not given)
inactive: dose: 3.0 mg/kg/injection, schedule: Q01DX009 (ip), vehicle: saline with Tween-80 101 % of control | dose: 6.0 mg/kg/injection, schedule: Q01DX009 (ip), vehicle: saline with Tween-80 99 % of control | dose: 12.0 mg/kg/injection, schedule: Q01DX009 (ip), vehicle: saline with Tween-80 100 % of control | dose: 12.5 mg/kg/injection, schedule: Q01DX009 (ip), vehicle: saline with Tween-80 88 % of control

CCOC(=O)C1=C(Nc2ccc(OC)cc2)C(N)=NC1=N
inactive: dose: 6.25 mg/kg/injection, schedule: Q01DX009 (ip), vehicle: suspension in saline 100 % of control | dose: 12.5 mg/kg/injection, schedule: Q01DX009 (ip), vehicle: suspension in saline 102 % of control and 110 % of control | dose: 25.0 mg/kg/injection, schedule: Q01DX009 (ip), vehicle: suspension in saline 106 % of control and 117 % of control | dose: 50.0 mg/kg/injection, schedule: Q01DX009 (ip), vehicle: suspension in saline 102 % of control and 121 % of control | dose: 100.0 mg/kg/injection, schedule: Q01DX009 (ip), vehicle: suspension in saline 92 % of control

N#CC(=N)C(C#N)=Nc1c(O)[nH]c2ccccc12
inactive: dose: 6.25 mg/kg/injection, schedule: Q01DX009 (ip), vehicle: DMSO 100 % of control | dose: 12.5 mg/kg/injection, schedule: Q01DX009 (ip), vehicle: DMSO 94 % of control | dose: 25.0 mg/kg/injection, schedule: Q01DX009 (ip), vehicle: DMSO 100 % of control | dose: 50.0 mg/kg/injection, schedule: Q01DX009 (ip), vehicle: DMSO 108 % of control

CC1(C)CC(NC(=O)CCl)CC(C)(C)N1O
inactive: [4] 93 % of control | [5] 91 % of control | [12] 102 % of control

Cc1cc(C)[nH]n1
inactive: dose: 100.0 mg/kg/injection, schedule: Q01DX009 (ip), vehicle: saline with Tween-80 110 % of control | dose: 200.0 mg/kg/injection, schedule: Q01DX009 (ip), vehicle: saline with Tween-80 105 % of control | dose: 400.0 mg/kg/injection, schedule: Q01DX009 (ip), vehicle: saline with Tween-80 120 % of control

O=c1[nH]c(=O)c2nc(-c3cccnc3)cnc2[nH]1
inactive: [4] 103 % of control and 120 % of control

CC(=O)Nc1ccc2c(c1)Cc1cccc(NC(C)=O)c1-2
inactive: [4] 105 % of control | [5] 110 % of control | [12] 115 % of control

OCC(CO)c1ccccc1
inactive: dose: 37.5 mg/kg/injection, schedule: Q04DX003 (ip), vehicle: saline 97 % of control | dose: 75.0 mg/kg/injection, schedule: Q04DX003 (ip), vehicle: saline 100 % of control | dose: 150.0 mg/kg/injection, schedule: Q04DX003 (ip), vehicle: saline 100 % of control

C=C(C)C1(C(=O)OCC(Cl)(Cl)Cl)NC(=O)C(NC(=O)COc2ccccc2)=CO1 (stereo not given)
inactive: [1] 99 % of control | [2] 88 % of control | [3] 95 % of control
